Our source for the T/C values is PubChem BioAssay AID196 (DTP/NCI, 2004).

The experiment has as its system BDF1 mice, intracerebral B16 melanoma, median survival T/C. Put plainly: NCI In Vivo Anticancer Drug Screen. Data for tumor model B16 Melanoma (intracerebral) in B6D2F1 (BDF1) mice. The conditions noted are these: endpoint: median survival time, higher = longer survival. The protocol:
The antitumor activity of compounds was measured in mice bearing transplantable tumors. Survival or tumor size were measured and the results are expressed as the measurement made in the treated group (T) divided by the measurement made in the vehicle treated control group (C). The tumor model used in this assay is B16 Melanoma (intracerebral) in B6D2F1 (BDF1) mice

[1] abbreviates: dose: 3.12 mg/kg/injection, schedule: Q01DX009 (ip), vehicle: other.
[2] abbreviates: dose: 6.25 mg/kg/injection, schedule: Q01DX009 (ip), vehicle: other.
Where [3] appears, read: dose: 12.5 mg/kg/injection, schedule: Q01DX009 (ip), vehicle: other.
The mark [4] stands for this setting: dose: 25.0 mg/kg/injection, schedule: Q01DX009 (ip), vehicle: other.
[5] abbreviates: dose: 50.0 mg/kg/injection, schedule: Q01DX009 (ip), vehicle: other.
Setting [6] is: dose: 2.0 mg/kg/injection, schedule: Q01DX009 (ip), vehicle: saline with Tween-80.
[7] abbreviates: dose: 4.0 mg/kg/injection, schedule: Q01DX009 (ip), vehicle: saline with Tween-80.
[8] abbreviates: dose: 8.0 mg/kg/injection, schedule: Q01DX009 (ip), vehicle: saline with Tween-80.
The mark [9] stands for this setting: dose: 16.0 mg/kg/injection, schedule: Q01DX009 (ip), vehicle: saline with Tween-80.
Setting [10] is: dose: 26.7 mg/kg/injection, schedule: Q01DX001 (ip), vehicle: Klucel (hydroxypropylcellulose) (HPC).
Setting [11] is: dose: 40.0 mg/kg/injection, schedule: Q01DX001 (ip), vehicle: Klucel (hydroxypropylcellulose) (HPC).

Several values for one entry are separate records, joined by “and”; a condition that tells them apart may be missing. Identical values can stand only once. Inconclusive results and toxic doses are left out.

Consider `O=C1C=CN(C2OC(CO)C(O)C2O)C(=O)C1` (stereo not drawn), for which the T/C by setting is: (dose: 12.5 mg/kg/injection, schedule: Q01DX009 (ip), vehicle: saline) 90 % of control; (dose: 25.0 mg/kg/injection, schedule: Q01DX009 (ip), vehicle: saline) 97 % of control; (dose: 50.0 mg/kg/injection, schedule: Q01DX009 (ip), vehicle: saline) 97 % of control; (dose: 100.0 mg/kg/injection, schedule: Q01DX009 (ip), vehicle: saline) 100 % of control; (dose: 200.0 mg/kg/injection, schedule: Q01DX009 (ip), vehicle: saline) 111 % of control; (dose: 400.0 mg/kg/injection, schedule: Q01DX009 (ip), vehicle: saline) 107 % of control.

With `CN(C)N=Nc1ccnc2ccc(I)cc12`, the T/C is, setting by setting: under setting [1], 112 % of control; under setting [2], 110 % of control; under setting [3], 95 % of control; under setting [4], 110 % of control; under setting [5], 109 % of control.

Consider `CN(C)CC(=O)c1ccc(O)c(O)c1`, for which the T/C was 96 % of control (dose: 100.0 mg/kg/injection, schedule: Q01DX005 (ip), vehicle: saline); 124 % of control and 97 % of control (dose: 200.0 mg/kg/injection, schedule: Q01DX005 (ip), vehicle: saline); 119 % of control (dose: 400.0 mg/kg/injection, schedule: Q01DX005 (ip), vehicle: saline); 90 % of control and 108 % of control (dose: 800.0 mg/kg/injection, schedule: Q01DX005 (ip), vehicle: saline).

As for `CCN(CC)CCCC(C)Nc1c2ccc(Cl)cc2nc2ccc(OC)cc12` (stereo not drawn), the T/C runs as follows: (dose: 1.0 mg/kg/injection, schedule: Q01DX009 (ip), vehicle: saline with Tween-80) 96 % of control; under setting [6], 151 % of control; under setting [7], 122 % of control; under setting [8], 105 % of control and 107 % of control; under setting [9], 105 % of control; (dose: 32.0 mg/kg/injection, schedule: Q01DX009 (ip), vehicle: saline with Tween-80) 105 % of control. For the same compound, the T/C (dose: 64.0 mg/kg/injection, schedule: Q01DX009 (ip), vehicle: saline with Tween-80) is 112 % of control.

With `CC(=O)NNC(=O)c1ccccn1`, the T/C runs as follows: (dose: 100.0 mg/kg/injection, schedule: Q01DX005 (ip), vehicle: Klucel (hydroxypropylcellulose) (HPC)) 104 % of control and 108 % of control; (dose: 200.0 mg/kg/injection, schedule: Q01DX005 (ip), vehicle: Klucel (hydroxypropylcellulose) (HPC)) 100 % of control.

`NC(CSC(c1ccccc1)(c1ccccc1)c1ccccc1)C(=O)O` (stereo not drawn): the T/C was 105 % of control and 115 % of control (dose: 32.0 mg/kg/injection, schedule: Q01DX005 (ip), vehicle: Klucel (hydroxypropylcellulose) (HPC)); 105 % of control and 112 % of control (dose: 64.0 mg/kg/injection, schedule: Q01DX005 (ip), vehicle: Klucel (hydroxypropylcellulose) (HPC)); 117 % of control and 119 % of control (dose: 128.0 mg/kg/injection, schedule: Q01DX005 (ip), vehicle: Klucel (hydroxypropylcellulose) (HPC)); 124 % of control and 107 % of control (dose: 256.0 mg/kg/injection, schedule: Q01DX005 (ip), vehicle: Klucel (hydroxypropylcellulose) (HPC)).

Turning to `Cc1ncc(CNC(=O)N(CCCl)N=O)c(N)n1`, the T/C runs as follows: (dose: 12.5 mg/kg/injection, schedule: Q01DX009 (ip), vehicle: Klucel (hydroxypropylcellulose) (HPC)) 179 % of control; (dose: 25.0 mg/kg/injection, schedule: Q01DX009 (ip), vehicle: Klucel (hydroxypropylcellulose) (HPC)) 105 % of control.

For `COc1ccc(C(=O)/C(Br)=C/C(=O)O)cc1`, the T/C is, setting by setting: (dose: 10.0 mg/kg/injection, schedule: Q01DX005 (ip), vehicle: saline) 91 % of control and 105 % of control; (dose: 20.0 mg/kg/injection, schedule: Q01DX005 (ip), vehicle: saline) 90 % of control and 93 % of control; (dose: 40.0 mg/kg/injection, schedule: Q01DX005 (ip), vehicle: saline) 97 % of control and 99 % of control.

For the compound `CN=NNc1nc[nH]c1C(N)=O`, the T/C is, setting by setting: (dose: 16.0 mg/kg/injection, schedule: Q01DX005 (ip), vehicle: saline) 106 % of control; (dose: 32.0 mg/kg/injection, schedule: Q01DX005 (ip), vehicle: saline) 95 % of control; (dose: 64.0 mg/kg/injection, schedule: Q01DX005 (ip), vehicle: saline) 102 % of control; (dose: 128.0 mg/kg/injection, schedule: Q01DX005 (ip), vehicle: saline) 107 % of control.

On to `S=c1nc[nH]c2nc[nH]c12`, for which the T/C reads like this: (dose: 11.3 mg/kg/injection, schedule: Q01DX009 (ip), vehicle: other) 91 % of control; (dose: 22.5 mg/kg/injection, schedule: Q01DX009 (ip), vehicle: other) 100 % of control; (dose: 45.0 mg/kg/injection, schedule: Q01DX009 (ip), vehicle: other) 100 % of control.

Consider `O=CC(NC(=O)N(CCF)N=O)C(O)C(O)C(O)CO` (stereo not drawn), for which the T/C runs as follows: under setting [10], 107 % of control; under setting [11], 109 % of control; (dose: 60.0 mg/kg/injection, schedule: Q01DX001 (ip), vehicle: Klucel (hydroxypropylcellulose) (HPC)) 118 % of control.

Consider `CN(C)N=Nc1ccc(Cl)c2ncccc12`, for which the T/C runs as follows: under setting [1], 108 % of control; under setting [2], 97 % of control; under setting [3], 100 % of control; under setting [5], 94 % of control.

For `O=NN(CCCl)C(=O)NC1CCC(=O)NC1=O` (stereo not drawn), the T/C by setting is: (dose: 0.5 mg/kg/injection, schedule: Q01DX009 (ip), vehicle: saline with Tween-80) 108 % of control; under setting [6], 153 % of control; under setting [7], 202 % of control; (dose: 4.32 mg/kg/injection, schedule: Q01DX001 (ip), vehicle: Klucel (hydroxypropylcellulose) (HPC)) 111 % of control; (dose: 6.48 mg/kg/injection, schedule: Q01DX001 (ip), vehicle: other) 120 % of control; (dose: 7.2 mg/kg/injection, schedule: Q01DX001 (ip), vehicle: Klucel (hydroxypropylcellulose) (HPC)) 122 % of control. The T/C under setting [8] is 337 % of control; the T/C (dose: 11.9 mg/kg/injection, schedule: Q01DX001 (ip), vehicle: Klucel (hydroxypropylcellulose) (HPC)) was 172 % of control; the T/C (dose: 12.0 mg/kg/injection, schedule: Q01DX001 (ip), vehicle: Klucel (hydroxypropylcellulose) (HPC)) was 150 % of control; the T/C under setting [9] was 89 % of control; the T/C (dose: 17.8 mg/kg/injection, schedule: Q01DX001 (ip), vehicle: Klucel (hydroxypropylcellulose) (HPC)) is 201 % of control; the T/C (dose: 18.0 mg/kg/injection, schedule: Q01DX001 (ip), vehicle: other) is 338 % of control. The T/C reads like this: (dose: 20.0 mg/kg/injection, schedule: Q01DX001 (ip), vehicle: Klucel (hydroxypropylcellulose) (HPC)) 204 % of control; under setting [10], 187 % of control; under setting [11], 120 % of control.

For `CS(C)=O`, the T/C is 103 % of control (dose: 1000.0 mg/kg/injection, schedule: Q01DX005 (ip), vehicle: saline); 97 % of control and 100 % of control and 108 % of control (dose: 2000.0 mg/kg/injection, schedule: Q01DX005 (ip), vehicle: saline); 101 % of control and 109 % of control and 114 % of control (dose: 4000.0 mg/kg/injection, schedule: Q01DX005 (ip), vehicle: saline).

On to `CN(N=O)C(=O)N[C@@H](C=O)[C@@H](O)[C@H](O)[C@H](O)CO`, for which the T/C is, setting by setting: (dose: 0.12 mg/kg/injection, schedule: Q01DX009 (ip), vehicle: citric acid) 101 % of control; (dose: 0.25 mg/kg/injection, schedule: Q01DX009 (ip), vehicle: citric acid) 94 % of control; (dose: 0.5 mg/kg/injection, schedule: Q01DX009 (ip), vehicle: citric acid) 104 % of control; (dose: 1.0 mg/kg/injection, schedule: Q01DX009 (ip), vehicle: citric acid) 102 % of control; (dose: 2.0 mg/kg/injection, schedule: Q01DX009 (ip), vehicle: citric acid) 102 % of control; (dose: 5.0 mg/kg/injection, schedule: Q01DX009 (ip), vehicle: citric acid) 102 % of control. The T/C is 108 % of control (dose: 10.0 mg/kg/injection, schedule: Q01DX009 (ip), vehicle: citric acid) and 94 % of control (dose: 0.12 micrograms/kg/injection, schedule: Q01DX009 (ip), vehicle: citric acid).

In the case of `CN(C)N=Nc1ccc2c(c1)N(C)c1ccc(F)cc1S2`, the T/C was 90 % of control under setting [2]; 105 % of control under setting [3]; 112 % of control under setting [4]; 105 % of control under setting [5]; 112 % of control (dose: 100.0 mg/kg/injection, schedule: Q01DX009 (ip), vehicle: other).
